Reference: US11851411B2, “Herbicidal compounds” (SYNGENTA CROP PROTECTION AG, priority 2018, dated 2023)

What was measured:
Format in all cases: in vivo
[1] = test system: Echinochloa crus-galli (ECHCG); assay: Glasshouse herbicide test, pre-emergence; conditions: PRE Application; 500 g/h; evaluated after 13 days
Method: (§1) Seeds of a variety of test species are shown in standard soil in pots (Lolium perenne (LOLPE), Amaranthus retoflexus (AMARE), Abutilon theophrasti (ABUTH), Setaria faberi (SETFA), Echinochloa crus-galli (ECHCG), Ipomoea hederacea (IPOHE)). After cultivation for one day (pre-emergence) or after 8 days cultivation (post-emergence) under controlled conditions in a glasshouse (at 24/16° C., day/night; 14 hours light; 65% humidity), the plants are sprayed with an aqueous spray solution derived from the formulation of the technical active ingredient in acetone/water (50:50) solution containing 0.5% Tween 20 (polyoxyethelyene sorbitan monolaurate, CAS RN 9005-64-5). Compounds are applied at 500 g/h. The test plants are then grown in a glasshouse under controlled conditions in a glasshouse (at 24/16° C., day/night; 14 hours light; 65% humidity) and watered twice daily. After 13 days for pre and post-emergence, the test is evaluated for the percentage damage caused to the plant. The biological activities are shown in the following table on a five point scale (5=80-100%; 4=60-79%; 3=40-59%; 2=20-39%; 1=0-19%).

Setaria faberi (SETFA) [2] = assay: Glasshouse herbicide test, pre-emergence; conditions: PRE Application; 500 g/h; evaluated after 13 days
Method: as §1

[3] = test system: Ipomoea hederacea (IPOHE); assay: Glasshouse herbicide test, pre-emergence; conditions: PRE Application; 500 g/h; evaluated after 13 days
Method: as §1

[4] = test system: Amaranthus retoflexus (AMARE); assay: Glasshouse herbicide test, pre-emergence; conditions: PRE Application; 500 g/h; evaluated after 13 days
Method: as §1

[5] = test system: Abutilon theophrasti (ABUTH); assay: Glasshouse herbicide test, pre-emergence; conditions: PRE Application; 500 g/h; evaluated after 13 days
Method: as §1

[6] = test system: Echinochloa crus-galli (ECHCG); assay: Glasshouse herbicide test, post-emergence; conditions: POST Application; 500 g/h; evaluated after 13 days
Method: as §1

Setaria faberi (SETFA) [7] = assay: Glasshouse herbicide test, post-emergence; conditions: POST Application; 500 g/h; evaluated after 13 days
Method: as §1

[8] = test system: Ipomoea hederacea (IPOHE); assay: Glasshouse herbicide test, post-emergence; conditions: POST Application; 500 g/h; evaluated after 13 days
Method: as §1

[9] = test system: Amaranthus retoflexus (AMARE); assay: Glasshouse herbicide test, post-emergence; conditions: POST Application; 500 g/h; evaluated after 13 days
Method: as §1

[10] = test system: Abutilon theophrasti (ABUTH); assay: Glasshouse herbicide test, post-emergence; conditions: POST Application; 500 g/h; evaluated after 13 days
Method: as §1

| SMILES | percentage damage caused to the plant, five point scale, ECHCG [1] | percentage damage caused to the plant, five point scale, SETFA (Setaria faberi (SETFA) [2]) | percentage damage caused to the plant, five point scale, IPOHE [3] | percentage damage caused to the plant, five point scale, AMARE [4] | percentage damage caused to the plant, five point scale, ABUTH [5] | percentage damage caused to the plant, five point scale, ECHCG [6] | percentage damage caused to the plant, five point scale, SETFA (Setaria faberi (SETFA) [7]) | percentage damage caused to the plant, five point scale, IPOHE [8] | percentage damage caused to the plant, five point scale, AMARE [9] | percentage damage caused to the plant, five point scale, ABUTH [10] |
| --- | --- | --- | --- | --- | --- | --- | --- | --- | --- | --- |
| CON(C(C)=O)c1c(S(C)(=O)=O)ccc(C(=O)Nc2nnnn2C)c1Cl [Compound 1.007] | 5 (5=80-100%) | 3 (3=40-59%) | 5 (5=80-100%) | 5 (5=80-100%) | 5 (5=80-100%) | 5 (5=80-100%) | 5 (5=80-100%) | 5 (5=80-100%) | 5 (5=80-100%) | 5 (5=80-100%) |
| CCn1nnnc1NC(=O)c1ccc(S(C)(=O)=O)c(N(OC)C(C)=O)c1Cl [Compound 1.008] | 5 (5=80-100%) | 5 (5=80-100%) | 5 (5=80-100%) | 5 (5=80-100%) | 5 (5=80-100%) | 5 (5=80-100%) | 5 (5=80-100%) | 5 (5=80-100%) | 5 (5=80-100%) | 5 (5=80-100%) |
| CCCn1nnnc1NC(=O)c1ccc(S(C)(=O)=O)c(N(OC)C(C)=O)c1Cl [Compound 1.009, 3-[acetyl(methoxy)amino]-2-chloro-4-methylsulfonyl-N-(1-propyltetrazol-5-yl)benzamide] | 5 (5=80-100%) | 4 (4=60-79%) | 5 (5=80-100%) | 5 (5=80-100%) | 5 (5=80-100%) | 5 (5=80-100%) | 5 (5=80-100%) | 5 (5=80-100%) | 5 (5=80-100%) | 5 (5=80-100%) |
| CON(C(=O)OC(C)(C)C)c1c(C(F)(F)F)ccc(C(=O)Nc2nnnn2C)c1Cl [Compound 1.025] | 5 (5=80-100%) | 5 (5=80-100%) | 5 (5=80-100%) | 5 (5=80-100%) | 5 (5=80-100%) | 5 (5=80-100%) | 5 (5=80-100%) | 5 (5=80-100%) | 5 (5=80-100%) | 5 (5=80-100%) |
| CON(C(=O)OC(C)(C)C)c1c(S(C)(=O)=O)ccc(C(=O)Nc2nnnn2C)c1Cl [Compound 1.031] | 5 (5=80-100%) | 5 (5=80-100%) | 5 (5=80-100%) | 5 (5=80-100%) | 5 (5=80-100%) | 5 (5=80-100%) | 5 (5=80-100%) | 5 (5=80-100%) | 5 (5=80-100%) | 5 (5=80-100%) |
| CON(C)c1c(C(F)(F)F)ccc(C(=O)Nc2nnnn2C)c1Cl [Compound 1.037] | 5 (5=80-100%) | 5 (5=80-100%) | 5 (5=80-100%) | 5 (5=80-100%) | 5 (5=80-100%) | 5 (5=80-100%) | 5 (5=80-100%) | 5 (5=80-100%) | 5 (5=80-100%) | 5 (5=80-100%) |
